Here are results for nine molecules from patent publication US20090247461A1, “METHODS FOR THERAPEUTIC TREATMENT OF PAIN” (priority 2004, published 2009).

In test [1] the test system is sciatic nerve ligation injury model. Put plainly: Heat test before and after administration of serotonin depletor, opioid antagonist, α- or β-adrenergic receptor blocker. The following applies: 3 weeks after ligation; for heat test with vs without / before vs after the depletor or blocker, control group: saline control group, 5,7-DHT intradural, naloxone 5 mg/kg, propranolol 10 mg/kg. In kind it is in vivo, rat. As to the method: (§1) A sciatic nerve ligation injury model was prepared by modifying the neuropathic pain model published by Bennett et al. according to the method of Takeba (Pain, Vol. 33, pp. 87-107, 1988; Ehime Igaku (Ehime Medical Journal), Vol. 21, pp. 192-206, 2002). Under anesthesia by inhalation of 3% halothane and nitrous oxide, bilateral sciatic nerves of 8- to 12-week old female Wistar rats (Clea Japan, Inc., Osaka) were exposed and ligated at the central level of the femur along with a 27-gauge injection needle on the both sides by using a 4-0 polyglycolic acid suture at 4 sites at intervals of 1 mm for both sides. Then, the injection needle was removed to prepare a sciatic nerve ligation injury model. The ligation was attained to such a degree that the crural muscles slightly contractable by a stimulus given to the nerve, and care was taken not to cause injury in the axon by the ligation operation itself.
A solution of ginsenoside Rb1 (0.10 or 0.50 μg/μl) in a volume of 120 μl or an equivalent volume of saline was intravenously administered by one-shot to rats 24 hours after the sciatic nerve ligation. Then, ginsenoside Rb1 was intravenously administered continuously by using the continuous injection pump at a dose of 12 μg/day (hereinafter referred to as “S12”) or 60 μg/day (hereinafter referred to as “S60”) and a rate of 0.25 μL/hour for 4 weeks. Similarly, saline was intravenously administered continuously for 4 weeks as the control group.
(§2) To determine thermal paw withdrawal latency, a heat test was performed by using Plantar Test produced by Ugo Basile (Planter test 7370, Ugo Basile, Italy) according to the method of Hargreaves et al. (Pain, Vol. 32, pp. 77-88, 1988). Rats were placed on a plastic table maintained at a temperature of 23 to 24° C. and stimulated on the sole by using a thermal stimulator, and withdrawal latency (seconds) was measured. Occurrence of hyperalgesia was determined on the basis of shortening of the latency. The latency was measured 3 times for both the soles always at an interval of 5 minutes, and the average of the results of 6 times in total of measurements was used as a measured value.
To elucidate the action mechanism of Rb1, examination was performed by using depletors or blockers against substances reported to be involved in the descending pain signal transmission in the spinal cord, such as serotonin depletors, opioid receptor antagonists, α-adrenergic receptor blockers, and β-adrenergic receptor blockers (Biol. Pharm. Bull., 22-7, pp. 691-697, 1999). The heat test was performed 24 hours after the sciatic nerve ligation, and only rats showing an average latency for both feet of 90% or lower of the same before the operation were used. Animals in a number of 48 in total were arbitrarily divided into 8 groups (6 animals per group) to prepare Rb1-administered groups and a control group. A serotonin depletor, opioid receptor antagonist, α-adrenergic receptor blocker and β-adrenergic receptor blocker were each administered 3 weeks after the ligation, the heat test was performed before and after the administration, and the results were compared.
The serotonin depletor, 5,7-dihydroxytryptamine (5,7-DHT, ICN Biomedicals Inc., Ohio, U.S.A), was intradurally administered in an amount of […] 1 week before the measurement, and the heat test was performed 3 weeks after the ligation. Further, the heat test was performed 3 weeks after the ligation, on the following day, 5 mg/kg of the opioid receptor antagonist, naloxone (USP, Rockville, U.S.A), 10 mg/kg of the β-adrenergic receptor blocker, propranolol (SIGMA-ALDRICH Co., St. Louis, U.S.A), and 20 mg/kg of the α-adrenergic receptor blocker, phentolamine (SIGMA-ALDRICH Co., St. Louis, U.S.A), were each subcutaneously injected, and the heat test was performed again one hour later.

A further test deals with mice. The following applies: cited from earlier work.
The subject of test [2] is sciatic nerve ligation injury model. Put plainly: Heat test (thermal paw withdrawal latency) in sciatic nerve ligation injury model. The following applies: continuously administered i.v. for 4 weeks from 24 hours after sciatic nerve ligation (12 or 60 μg/day); 3 weeks after the ligation and thereafter; vs saline control. In kind it is in vivo, rat. As for the experimental part: as §1, with “The ligation was attained to such a degree that the crural muscles slightly contractable by a stimulus given to the nerve, and care was taken not to cause injury in the axon by the ligation operation itself.” left out
as §2

The test system is the same in test [3]. Put plainly: Pressure test (von Frey withdrawal threshold) in sciatic nerve ligation injury model. In kind it is in vivo, rat. The following applies: continuously administered i.v. for 4 weeks from 24 hours after sciatic nerve ligation, vs saline control. As for the experimental part: as §1, with “The ligation was attained to such a degree that the crural muscles slightly contractable by a stimulus given to the nerve, and care was taken not to cause injury in the axon by the ligation operation itself.” left out
To measure the pain threshold for a mechanical stimulus (von Frey withdrawal threshold), the von Frey hair test was performed in the same manner as in the Semmes-Weinstein test (Z. Gesamte Neurol. Psychiat., Vol. 79, pp. 324-333, 1922; Perceptual and Motor Skills, Vol. 14, pp. 351-354, 1962; The Journal of Hand Surgery, Vol. 3, pp. 211-216, 1978), which is clinically performed. […] In this procedure, the pain threshold (g) for the pressure stimuli to both the soles was measured twice for each time, and the average of the results obtained in measurements of 4 times in total was used as a measured value.

The test system of test [4] is α2A-adrenergic receptor mRNA. Put plainly: Measurement of α2A-adrenergic receptor mRNA in the spinal cord by RT-PCR. In kind it is in vivo, rat. The following applies: 60 μg/day i.v. continuously; 3 weeks after sciatic nerve ligation; compared with control group and sham operation group. As for the experimental part:
The spinal cord in the sciatic nerve innervation territory was removed from rats of the sham operation group (n=7) and rats 3 weeks after the sciatic nerve ligation (each n=7) which were intravenously administered with saline or 60 μg/day of ginsenoside Rb1 (S60) continuously from 24 hours after the sciatic nerve ligation, and total RNA was extracted by using ISOGEN (Nippon Gene, Tokyo). The extracted total RNA was treated with DNase, and single-stranded cDNA was synthesized by using oligo-dT primers and Moloney murine leukemia virus reverse transcriptase (Life Technologies, Rockville, USA). The sequences of the primers used in this example were as follows.
PCR was performed under the following condition using Taq polymerase (Takara, Tokyo). For β-actin, after a reaction at 94° C. for 5 minutes, a cycle of heat denaturation at 94° C. for 1 minute, annealing at 55° C. for 1 minute and 30 seconds and elongation at 72° C. for 1 minute and 30 seconds was repeated 25 times. For α2A-adrenergic receptor, after a reaction at 94° C. for 2 minutes, a cycle of heat denaturation at 94° C. for 1 minute, annealing at 60° C. for 1 minute and elongation at 72° C. for 1 minute was repeated 30 times. As the internal control, β-actin was used.

Test [5] deals with α2A-adrenergic receptor protein. Put plainly: Expression of α2A-adrenergic receptor protein in the spinal cord (immunoblot). In kind it is in vivo, rat. The following applies: 60 μg/day i.v. continuously; 3 weeks after sciatic nerve ligation; compared with control group and sham operation group. As for the experimental part: The spinal cord in the sciatic nerve innervation territory was removed from rats of the sham operation group (n=3) and rats 3 weeks after the sciatic nerve ligation (each n=3) which were intravenously administered with saline or 60 μg/day of ginsenoside Rb1 (S60) continuously from 24 hours after the sciatic nerve ligation, added to 10 times in volume of 50 mM phosphate buffer, 100 μM pAPMSF, 0.5% Triton-X and 0.5% SDS, and homogenized. The homogenate was added with a half volume of 6% SDS (+β-mercaptoethanol), incubated at 99° C. for 10 minutes and centrifuged at 15,000 rpm and 4° C. for 10 minutes, and the supernatant was used as a sample. Electrophoresis was performed on 10% SDS polyacrylamide, and then the protein was transferred on a polyvinylidine difluoride membrane (Millipore, Bedford, U.S.A.) by using a transblotting apparatus. Western blotting was performed by using anti-α2A-adrenoceptor antibody (ALEXIS BIOCHEMICALS, San Diego, USA) as the primary antibody and anti-rabbit IgG conjugated with alkaline phosphatase (SIGMA Chemicals, St. Louis, U.S.A) as the secondary antibody.
On the technique in general: A western blot detects proteins with antibodies after separation by electrophoresis.

Test [6] has as its system transient forebrain ischemia. The following applies: oral (red ginseng powder) or intraperitoneal (crude ginseng saponin, ginsenoside Rb1) over one week before ischemia; cited from earlier work.
Test [7] relates to transient forebrain ischemia. The following applies: continuously injected into the brain ventricle for 7 days after ischemia, cited from earlier work.

Take `NCCc1c[nH]c2c(O)cc(O)cc12` [5,7-DHT, 5,7-dihydroxytryptamine, reference compound]: the “heat test with vs without / before vs after the depletor or blocker, control group” value (shortened to “heat test with vs without / before”) in test [1] (phentolamine 20 mg/kg s.c.) is recorded as “no significant difference”.
With `CC(C)=CCC[C@](C)(O[C@@H]1O[C@H](CO[C@@H]2O[C@@H](CO)[C@H](O)[C@H]2O)[C@@H](O)[C@H](O)[C@H]1O)[C@H]1CC[C@]2(C)[C@@H]1[C@H](O)C[C@@H]1[C@@]3(C)CC[C@H](O[C@@H]4O[C@H](CO)[C@@H](O)[C@H](O)[C@H]4O[C@@H]4O[C@H](CO)[C@@H](O)[C@H](O)[C@H]4O)C(C)(C)[C@@H]3CC[C@]12C` [Rc, ginsenoside Rc], in the test on mice, the analgesic effect result was “analgesic effect”.
Regarding `CC(C)=CCC[C@](C)(O[C@@H]1O[C@H](CO)[C@@H](O)[C@H](O)[C@H]1O)[C@H]1CC[C@]2(C)[C@@H]1[C@H](O)C[C@@H]1[C@@]3(C)CC[C@H](O[C@@H]4O[C@H](CO)[C@@H](O)[C@H](O)[C@H]4O[C@@H]4O[C@H](CO)[C@@H](O)[C@H](O)[C@H]4O)C(C)(C)[C@@H]3CC[C@]12C` [Rd, ginsenoside Rd], the analgesic effect result with mice is “analgesic effect”.
As for `CC(C)=CCC[C@](C)(O[C@@H]1O[C@H](CO)[C@@H](O)[C@H](O)[C@H]1O)[C@H]1CC[C@]2(C)[C@@H]1[C@H](O)C[C@@H]1[C@@]3(C)CC[C@H](O)C(C)(C)[C@@H]3[C@@H](O[C@@H]3O[C@H](CO)[C@@H](O)[C@H](O)[C@H]3O[C@@H]3O[C@@H](C)[C@H](O)[C@@H](O)[C@H]3O)C[C@]12C` [Re, ginsenoside Re], the analgesic effect result in the test with mice was “analgesic effect”.
On to `CC(C)=CCC[C@](C)(O)[C@H]1CC[C@]2(C)[C@@H]1[C@H](O)C[C@@H]1[C@@]3(C)CC[C@H](O)C(C)(C)[C@@H]3[C@@H](O[C@@H]3O[C@H](CO)[C@@H](O)[C@H](O)[C@H]3O[C@@H]3O[C@H](CO)[C@@H](O)[C@H](O)[C@H]3O)C[C@]12C` [Rf, ginsenoside Rf], for which, in the test on mice, the analgesic effect result is listed as “analgesic effect”.
`CC(C)=CCC[C@](C)(O[C@@H]1O[C@H](CO[C@@H]2O[C@H](CO)[C@@H](O)[C@H](O)[C@H]2O)[C@@H](O)[C@H](O)[C@H]1O)[C@H]1CC[C@]2(C)[C@@H]1[C@H](O)C[C@@H]1[C@@]3(C)CC[C@H](O[C@@H]4O[C@H](CO)[C@@H](O)[C@H](O)[C@H]4O[C@@H]4O[C@H](CO)[C@@H](O)[C@H](O)[C@H]4O)C(C)(C)[C@@H]3CC[C@]12C` [ginsenoside Rb1]: the “hyperalgesia (heat test, withdrawal latency)” value in test [2] is “hyperalgesia was significantly relieved”. In test [3], the “allodynia (pressure test, von Frey pain threshold)” value is “allodynia was not ameliorated”. The “allodynia (pressure test, von Frey pain threshold)” value in test [3] (listed as Rb1) is “amelioration of allodynia was not observed”. Also, the “heat test, animals administered vs not administered with 5,7-DHT, Rb1-administered groups” value in test [1] (5,7-DHT intradurally 60 μL g 1 week before measurement) was “no significant difference”. Also, in test [1] (naloxone 5 mg/kg s.c., heat test again one hour later), the “heat test before and after administration of naloxone, Rb1-administered groups” value is “no significant difference”. Besides, the “hyperalgesia suppressing effect after administration of phentolamine, Rb1-administered groups” value in test [1] (phentolamine 20 mg/kg s.c., heat test again one hour later) was “significantly inhibited”. Also, the “heat test before and after administration of propranolol, Rb1-administered groups” value in test [1] (propranolol 10 mg/kg s.c., heat test again one hour later) was “no significant difference”. Also, the “expression level of the α2A-adrenergic receptor mRNA in the spinal cord” value in test [4] was “significantly increased”. Besides, the “expression level of the α2A-adrenergic receptor protein in the spinal cord” value in test [5] is “significantly increased”. Besides, in test [6], the “delayed nerve cell death” value is on record as “inhibition of delayed nerve cell death”; the “learning and behavioral impairment” value was “improvement of learning and behavioral impairment”. In test [7], the “delayed nerve cell death in the hippocampus CA1 region” value is “significantly reduced”. Also, the “response latency in a passive avoidance learning experiment” value in test [7] (dose-dependent, compared with a control) is “significantly prolonged”.
For `C=CCN1CC[C@]23c4c5ccc(O)c4O[C@H]2C(=O)CC[C@@]3(O)[C@H]1C5` [naloxone, reference compound], in test [1] (phentolamine 20 mg/kg s.c.), the “heat test with vs without / before” value is reported as “no significant difference”.
Take `Cc1ccc(N(CC2=NCCN2)c2cccc(O)c2)cc1` [phentolamine, reference compound]: in test [1] (phentolamine 20 mg/kg s.c.), the “heat test with vs without / before” value is on record as “no significant difference”.
The same measure, in the same setting: next, `CC(C)NCC(O)COc1cccc2ccccc12` (stereo not drawn) [propranolol, reference compound]: “no significant difference”.
